Patent US20050282745A1, “Non-mammalian GnRH analogs and uses thereof in regulation of fertility and pregnancy” (priority 2001, published 2005)
Non-standard residues stand in square brackets, D forms with d. Residues, ends and D or L forms follow the SMILES beside them. pGlu = O=C1CC[C@@H](C(=O)O)N1; azaGly = NNC(=O)O

Key:
baboon granulosa cells = test: Baboon granulosa cell culture, progesterone release; format: cell-based
From the text: The biopotency of chicken II GnRH analogs (SEQ ID NO: 2) in the regulation of baboon ovarian function was studied. The effect of mammalian and chicken II GnRH analogs (SEQ ID NO: 2) on ovarian progesterone release was studied using granulosa cell cultures. The dose-related action of a stable analog of chicken II GnRH (SEQ ID NO: 2) on progesterone production was defined using baboon granulosa cell cultures. After a two hour basal study period, the medium was supplemented with either Buserilin (SEQ ID NO: 10) (10^−7) or a chicken II GnRH analog (SEQ ID NO: 2) (10^−9, 10^−8, 10^−7, 10^−6 M) leaving four control wells. […] This inhibition was sustained after 48 hours of treatment. […] In addition, the action of the analog on three different stromal and three different epithelial endometrial primary cell lines (after 3-5 passages) has been studied and PGE2 determined as indicated in FIG. 31.

[1] = system: early human placental explants; test: Placental explant perifusion, hCG release; format: cell-based; conditions: for pattern of hCG response: continuous perifusion
From the text: Placental tissues that are normally discarded were obtained from unidentified patients following first trimester pregnancy termination (early human placental explants). Tissue fragments, dissected of vessels and membranes, were placed in a perfusion system for study of 20 replicate chambers of the same tissue. This allows for simultaneous dose-response studies to be performed. To achieve this specific aim, explants from a given placenta were placed in 20 replicate chambers and perfused with basal medium for three hours at a rate of 6 ml/hr (dead volume of the system at 6 ml/hr is ten minutes). After three hours of equilibration, the analog was added to the basal perfusing medium. Quaduplicate chambers were made for chicken II GnRH analog (SEQ ID NO: 2) at 0, 10^−9, 10^−8, 10^−7, 10^−6 M and Buserelin (SEQ ID NO: 10) at 10^−7 M. The effluent medium of each chamber was collected after a three hour equilibration period. Two basal samples, at half hour intervals were collected, media with test substances was initiated and effluent medium collection continued for four and one half hours at thirty minute intervals. The hCG release was analyzed in each of these experiments. FIGS. 16 and 17 illustrate a typical response. […] Maximal response was observed within minutes after initiation of perfusion at 10^−8 M, with possible down regulation beginning after five hours at 10^−6 M as illustrated in FIG. 18.
In additional experiments, early gestation human placentas were perfused for six hours with medium supplemented with estradiol, progesterone, bovine serum albumin, and antibiotics (basal medium). Twenty replicate chambers were perifused with basal medium for two hours, then triplicate chambers were perifused with the medium containing either Buserelin (SEQ ID NO: 10), or 10^−9, 10^−8, 10^−7, 10^−6 M of a chicken II GnRH analog (SEQ ID NO: 2), leaving five control chambers. The eluted medium was collected at thirty minute intervals, starting one hour prior to the addition of GnRH analogs and throughout five hours of treatment. hCG released into the effluent media, as well as the production of GnRH, were measured using sensitive and specific radioimmunoassays. The release of hCG at each time point was normalized to its zero treatment release and the release throughout the treatment period and its average release was compared for various treatment regimens. These studies were repeated using tissues from three different first trimester placentas. The results of this experiment are illustrated in FIG. 20.

[2] = system: human placental GnRH receptor; test: Placental GnRH receptor binding, 125I-Buserelin label; conditions: Buserelin label
Protocol: The newly synthesized non-mammalian GnRH analogs and other commercially available mammalian GnRH analogs were used in placental receptors binding and enzyme stability study described here. […] GnRH receptors were purified from the membrane fractions from placentas. The purification procedure for the placental GnRH receptor was performed using a modification of the method described by Bramley et al., which reference is specifically incorporated herein by reference for the purpose. Addition of enzyme inhibitors for the endogenous C-ase-1 were used as well as agents for receptor stabilization. Initially, receptor-binding assays using ^125I-Buserelin as label were performed. The competitive binding of each of the analogs was studied over a dose range of 10^−11 to 10^−6 M. Incubation was at room temperature and receptor bound label was precipitated with polyethylene glycol. Specific and non-specific binding was determined. The data was subjected to Scatchard analysis. The non-mammalian GnRH analogs' ability to bind to the placental GnRH receptor was compared to that for synthetic mammalian GnRH (SEQ ID NO: 5), Buserelin (SEQ ID NO: 10) and other mammalian analogs. […] This way, the receptor affinity for that analog could be precisely determined. Receptors from three different term placentas were used to study each of these analogs. […] Bramley T A, McPhie C A, Menzies G S 1994 Human placental gonadotropin-releasing hormone (GnRH) binding sites: 111. […] Placenta 15:733-745.
In these and additional studies, placental GnRH receptors were purified from human term placentas after homogenization in 40 mM Tris (pH 7.4) and filtered through cheesecloth, followed by an initial centrifugation at 1,000×g for 10 minutes. The resulting supernatant was, again, centrifuged at 35,000×g for 30 minutes and the membrane pellet was collected and resuspended in Tris buffer with 0.3 M sucrose. The protein concentration was determined. Membranes were stored frozen at −20 C until use. Before use, placental membranes were diluted to 5,000 μg/mL with Tris buffer containing 0.5% BSA and 50 U/mL bacitracin. […] Following incubation at room temperature for 4 hours, the bound and free hormones were separated using polyethylene glycol precipitation, followed by centrifugation. The binding affinity for each GnRH isoform or analog was calculated using the double reciprocal plot of bound versus free ligand. Each study was done using three different human term placental tissues.
Receptor assays were performed by incubating human term placental GnRH receptors with varying concentrations of GnRH or its analogs in the presence of ^125I-Buserelin. The reaction was stopped and the bound hormone precipitated with polyethylene glycol.

[3] = target: chorionic peptidase-1 (C-ase-1); test: C-ase-1 enzyme activity assay, competition for degradation of GnRH; conditions: competition for degradation of mammalian GnRH, Example III
Protocol: Using the incubation system developed for the C-ase-1 activity, the degradation of each analog was tested. […] These studies were done using the C-ase-1 enzyme activity assay as described previously. […] The product formed was calculated by subtraction, and its inverse plotted against the inverse of the original substrate concentrations to determine the nature of the competition. The Ki was to be determined by plotting the inverse of the product that formed verses the inhibitor used.
The concentration of the product of the degraded GnRH was quantified by subtracting the remaining mammalian GnRH from the starting concentrations of mammalian GnRH. […] The Ks for the degradation of mammalian GnRH was calculated from the x axis intercept using Lineweaver-Burke double reciprocal plot of the concentration of the product formed versus the concentration of the substrate used.
The reaction was stopped by heating at 85° C. for 10 minutes. The remaining GnRH was determined using a specific radioimmunoassay. The formation of product, i.e., the N-terminal nonapeptide of GnRH, was calculated by subtraction and its inverse was plotted versus the inverse of the initial substrate to determine the Ks of the reaction. […] The relative potency of each analog was compared.
Using the incubation system developed for the C-ase-1 activity, the degradation of each analog was studied. […] The inverse of the product was plotted against the inverse of the original substrate concentrations to determine Ks of the competition. The Ki was determined by plotting the inverse of the product formed verses the inhibitor used.

receptor binding potency compared with chicken II GnRH isoform or Buserelin ([2]; Example II): 2 fold
receptor binding potency compared with mammalian GnRH ([2]; Example II): 60 fold
Kd ([2]; term placental membranes, read-out: dissociation constant (Kd)): 175 ± 59 nM
Ki [3]: > 400 nM
Structure (SMILES): N=C(N)NCCC[C@@H](NC(=O)[C@H](Cc1c[nH]cn1)NC(=O)[C@H](CO)NC(=O)[C@H](Cc1c[nH]c2ccccc12)NC(=O)[C@H](Cc1c[nH]cn1)NC(=O)[C@@H]1CCC(=O)N1)C(=O)N[C@@H](Cc1c[nH]c2ccccc12)C(=O)N[C@@H](Cc1ccc(O)cc1)C(=O)N1CCC[C@H]1C(=O)NNC(N)=O [D-Arg(6)-chicken II GnRH-aza-Gly(10)-amide] ([pGlu]HWSH[dR]WYP[azaGly]-NH2)
progesterone release, of untreated controls (baboon granulosa cells; 10^−8M, within 24 hours): 31%
effect on progesterone release, in words (baboon granulosa cells; chicken II analog 10^−9 to 10^−6 M, Buserelin 10^−7): dose-related inhibition of progesterone release
concentration of maximal inhibition of progesterone release (baboon granulosa cells; within 24 hours): 10^−8 M
concentration giving maximal hCG response ([1]; 10^−9 to 10^−6 M tested): 10^−8 M
pattern of hCG response ([1]; listed as Chicken II GnRH analog): dose related biphasic response
pattern of hCG response ([1]; listed as chicken II GnRH analog): biphasic stimulation of hCG
